Results as given in patent US12594276B2, “Inhibitors of human immunodeficiency virus replication” (ViiV Healthcare UK (No.5) Limited, priority 2024, dated 2026).

What was measured:
[1] = test system: recombinant NL4-3 virus (nef section replaced with Renilla luciferase gene) in MT-2 cells; test: HIV cell culture assay (antiviral activity, luciferase readout); assay type: cell-based; conditions: Renilla, NL43, MT-2 cells infected for 4-5 days with recombinant NL4-3 Renilla luciferase virus
Summary of the method: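 The reporter virus was produced by transfecting 293T cells with the NL4-3 nef/Renilla luciferase proviral clone. MT-2 cells were infected for 4–5 days with serial compound dilutions present. Luciferase was read with a live-cell substrate, and EC50 came from the exponential median-effect equation.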

[2] = Compound cytotoxicity, XTT-based colorimetric assay; assay type: cell-based; conditions: human; uninfected MT2 cells, day 4, XTT; read-out: CC50
Summary of the method: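 Uninfected MT2 cells, antiviral-assay protocol without virus; XTT colorimetric readout day 4; CC50 reported.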

| SMILES | EC50 [1] [nM] | CC50 at 4 days [2] [nM] |
| --- | --- | --- |
| Cc1cc(C2CCC(F)(F)CC2)nc2nc([C@H](Cc3cc(F)cc(F)c3)NC(=O)Cn3nc(C4CC4)c4c3C[C@@H]3C[C@H]43)n(-c3ccc(Cl)c4c(NS(C)(=O)=O)nn(CCN5CCC(F)CC5)c34)c(=O)c12 (atropisomer, axis not shown; (P)) [Example 277, N-[(1S)-1-[(3P)-3-{4-chloro-1-[2-(4-fluoropiperidin-1-yl)ethyl]-3-methanesulfonamido-1H-indazol-7-yl}-7-(4,4-difluorocyclohexyl)-5-methyl-4-oxo-3H,4H-pyrido[2,3-d]pyrimidin-2-yl]-2-(3,5-difluorophenyl)ethyl]-2-[(2S,4S)-9-cyclopropyl-7,8-diazatricyclo[4.3.0.0^2,^4]nona-1(6),8-dien-7-yl]acetamide] | 0.009 | > 50 |
| CCNc1cc(C2CCC(F)(F)CC2)nc2nc([C@H](Cc3cc(F)cc(F)c3)NC(=O)Cn3nc(C(F)F)c4c3C(F)(F)[C@@H]3C[C@H]43)n(-c3ccc(Cl)c4c(NS(C)(=O)=O)nn(CCCOC)c34)c(=O)c12 (atropisomer, axis not shown; (P)) [Example 427, N-[(1S)-1-[(3P)-3-[4-chloro-3-methanesulfonamido-1-(3-methoxypropyl)-1H-indazol-7-yl]-7-(4,4-difluorocyclohexyl)-5-(ethylamino)-4-oxo-3H,4H-pyrido[2,3-d]pyrimidin-2-yl]-2-(3,5-difluorophenyl)ethyl]-2-[(2S,4R)-9-(difluoromethyl)-5,5-difluoro-7,8-diazatricyclo[4.3.0.0^2,4]nona-1(6),8-dien-7-yl]acetamide] | 0.01 | > 20 |
| Cc1cc(C2(F)CCC(F)(F)CC2)nc2nc([C@H](Cc3cc(F)cc(F)c3)NC(=O)Cn3nc(C(F)F)c4c3C(F)(F)[C@@H]3C[C@H]43)n(-c3ccc(Cl)c4c(NS(C)(=O)=O)nn([C@@H](C)CN5C[C@@H](C)O[C@@H](C)C5)c34)c(=O)c12 (atropisomer, axis not shown; (P)) [Example 747, N-[(1S)-1-[(3P)-3-{4-chloro-1-[(2S)-1-[(2R,6S)-2,6-dimethylmorpholin-4-yl]propan-2-yl]-3-methanesulfonamido-1H-indazol-7-yl}-5-methyl-4-oxo-7-(1,4,4-trifluorocyclohexyl)-3H,4H-pyrido[2,3-d]pyrimidin-2-yl]-2-(3,5-difluorophenyl)ethyl]-2-[(2S,4R)-9-(difluoromethyl)-5,5-difluoro-7,8-diazatricyclo[4.3.0.0^2,^4]nona-1(6),8-dien-7-yl]acetamide] | 0.017 | > 20 |
| COCCOCCn1nc(NS(C)(=O)=O)c2c(Cl)ccc(-n3c([C@H](Cc4cc(F)cc(F)c4)NC(=O)Cn4nc(C5CC5)c5c4C[C@@H]4C[C@H]54)nc4nc(C5CCC(F)(F)CC5)ccc4c3=O)c21 (atropisomer, axis not shown; (P)) [Example 237, N-[(1S)-1-[(3P)-3-{4-chloro-3-methanesulfonamido-1-[2-(2-methoxyethoxy)ethyl]-1H-indazol-7-yl}-7-(4,4-difluorocyclohexyl)-4-oxo-3H,4H-pyrido[2,3-d]pyrimidin-2-yl]-2-(3,5-difluorophenyl)ethyl]-2-[(2S,4S)-9-cyclopropyl-7,8-diazatricyclo[4.3.0.0^2,^4]nona-1(6),8-dien-7-yl]acetamide] | 0.006 | > 50 |
| Cc1cc(C2CCC(F)(F)CC2)nc2nc([C@H](Cc3cc(F)cc(F)c3)NC(=O)Cn3nc(C4CC4)c4c3C[C@@H]3C[C@H]43)n(-c3ccc(Cl)c4c(NS(C)(=O)=O)nn(CCN5CC(C(F)F)C5)c34)c(=O)c12 (atropisomer, axis not shown; (P)) [Example 275] | 0.012 | > 50 |
